Laboratory results reported in patent EP0354047A2, “Herbicidal method using atrazine” (MAY & BAKER LIMITED, priority 1988, dated 1990).

Assays:
Amaranthus retroflexus = experiment: Experiment 3: glasshouse, post-emergence, fresh weight after 19 days, % inhibition of growth; format: in vivo; conditions: 2-4 leaves
Procedure: (§1) A series of experiments was carried out to determine the nature of the biological interaction between atrazine and five compounds of general formula I on a range of weed species. […] The growth stages of the plants at spraying are also presented with the results. Agricultural surfactant (nonyl phenol ethylene oxide condensate containing 9 moles ethylene oxide marketed as 'Agral') was added to all spray dilutions to give 0.2% v/v concentration. […] After 19 days the fresh weight of vegetation in each pot was determined. […] E = […]00003:character} where E, X and Y are percentage inhibition of growth. In addition, the ED50 or ED90 values (the application rates giving 50% or 90% inhibition of growth, respectively) were calculated from the results for the piperidinedione alone and with increasing rates of atrazine.

Brassica kaber = experiment: as above; format: in vivo; conditions: 2-3 leaves
Procedure: as §1

Digitaria sanguinalis = experiment: as above; format: in vivo; conditions: 3 leaves
Procedure: as §1

Bidens pilosa = experiment: as above; format: in vivo; conditions: 2 leaves
Procedure: as §1

Solanum nigrum = experiment: as above; format: in vivo; conditions: 1-2 leaves
Procedure: as §1

Sesbania exactata = experiment: as above; format: in vivo; conditions: 2 leaves
Procedure: as §1

Eleusine indica [1] = experiment: as above; format: in vivo; conditions: 3 leaves
Procedure: as §1

Xanthium strumarium = experiment: as above; format: in vivo; conditions: 2 leaves
Procedure: as §1

Eleusine indica [2] = experiment: Experiment 2: glasshouse experiment, seedlings at 4-leaf stage, percentage phytotoxicity after 19 days; format: in vivo
Procedure: Agricultural surfactant - nonylphenol ethylene oxide condensate containing 9 moles ethylene oxide (in a commercial composition) was added to all spray dilutions to give 0.2% v/v concentration. […] The ED50 values were as follows:- The results were then used to plot an isobole with a "two-sided effect" according to the methods of […] op. cit. The isobole produced, shown hereinafter in Figure 1 was clearly a type III curve ([…]., page 75), characteristic of synergism.

maize var.Irla = experiment: Experiment 5: glasshouse, crop plants at 3 leaf stage, percentage phytotoxicity after 12 days; conditions: for % crop phytotoxicity Maize (3 leaves): Atrazine 0 g/ha
Procedure: An experiment was carried out to determine the biological interaction between atrazine and Compound 74 on maize. A wide range of dose rates of atrazine i.e. 250, 500, 1000 and 2000 g/ha (in a commercial suspension concentrate formulation containing 500g/l w/v atrazine) and of Compound 74 i.e. 31, 63, 125, 250, 1000 and 2000 g/ha (in a composition according to Example 2 as described hereinafter) were applied in a spray volume of 290litres/ha to four replicate 10cm square plastic plant pots of loam soil containing one maize plant, at the 3 leaf growth stage. Agricultural surfactant ('Agral') was added to the spray dilutions to give 0.2%v/v concentration.
After spraying the pots were arranged in randomised blocks in a glasshouse and watered as necessary. After 12 days the plants were assessed for percentage phytotoxicity (reduction in green area compared with unsprayed plants) (0 = no effect 100 = complete destruction).
E = X + Y […] where E, X and Y are percentage phytotoxicity.
The ED values were then used to plot an isobole according to the method of P.M.L. Tammes op cit. The results of percentage phytotoxicity, the ED₂₀ values calculated from them and the calculated expected value are given in Table 9.

O=C1CCNC(=O)C1C(=O)c1ccc(C(F)(F)F)cc1[N+](=O)[O-] (stereo not drawn) [Compound 74, 3-(2-nitro-4-trifluoromethylbenzoyl)piperidine-2,4-dione]
inhibition at 2 g/ha (Amaranthus retroflexus; Amaranthus retroflexus, post-emergence, Compound 74 2 g/ha alone): 27% | inhibition at 4 g/ha (Amaranthus retroflexus; Amaranthus retroflexus, post-emergence, Compound 74 4 g/ha alone): 47% | inhibition at 8 g/ha (Amaranthus retroflexus; Amaranthus retroflexus, post-emergence, Compound 74 8 g/ha alone): 69% | inhibition at 16 g/ha (Amaranthus retroflexus; Amaranthus retroflexus, post-emergence, Compound 74 16 g/ha alone): 76% | inhibition at 31 g/ha (Amaranthus retroflexus; Amaranthus retroflexus, post-emergence, Compound 74 31 g/ha alone): 86% | inhibition at 63 g/ha (Amaranthus retroflexus; Amaranthus retroflexus, post-emergence, Compound 74 63 g/ha alone): 90% | ED₉₀ (Amaranthus retroflexus; Compound 74 alone): ED₉₀(g/ha) 46.43 | ED₅₀ (Brassica kaber; Compound 74 alone): ED₅₀(g/ha) 10.3 | inhibition at 2 g/ha (Brassica kaber; Mutarda arvensis, post-emergence, Compound 74 2 g/ha alone): 19% | inhibition at 4 g/ha (Brassica kaber; Mutarda arvensis, post-emergence, Compound 74 4 g/ha alone): 20% | inhibition at 8 g/ha (Brassica kaber; Mutarda arvensis, post-emergence, Compound 74 8 g/ha alone): 32% | inhibition at 16 g/ha (Brassica kaber; Mutarda arvensis, post-emergence, Compound 74 16 g/ha alone): 61% | inhibition at 31 g/ha (Brassica kaber; Mutarda arvensis, post-emergence, Compound 74 31 g/ha alone): 72% | inhibition at 63 g/ha (Brassica kaber; Mutarda arvensis, post-emergence, Compound 74 63 g/ha alone): 96% | ED₉₀ (Digitaria sanguinalis; Compound 74 alone): ED₉₀ (g/ha) 75.46 | inhibition at 16 g/ha (Digitaria sanguinalis; Digitaria sanguinalis, post-emergence, Compound 74 16 g/ha alone): 55% | inhibition at 31 g/ha (Digitaria sanguinalis; Digitaria sanguinalis, post-emergence, Compound 74 31 g/ha alone): 75% | inhibition at 63 g/ha (Digitaria sanguinalis; Digitaria sanguinalis, post-emergence, Compound 74 63 g/ha alone): 88% | inhibition at 125 g/ha (Digitaria sanguinalis; Digitaria sanguinalis, post-emergence, Compound 74 125 g/ha alone): 96% | inhibition at 250 g/ha (Digitaria sanguinalis; Digitaria sanguinalis, post-emergence, Compound 74 250 g/ha alone): 99% | inhibition at 500 g/ha (Digitaria sanguinalis; Digitaria sanguinalis, post-emergence, Compound 74 500 g/ha alone): 100% | inhibition at 8 g/ha (Bidens pilosa; Bidens pilosa, post-emergence, Compound 74 8 g/ha alone): 0% | inhibition at 16 g/ha (Bidens pilosa; Bidens pilosa, post-emergence, Compound 74 16 g/ha alone): 0% | inhibition at 31 g/ha (Bidens pilosa; Bidens pilosa, post-emergence, Compound 74 31 g/ha alone): 0% | inhibition at 125 g/ha (Bidens pilosa; Bidens pilosa, post-emergence, Compound 74 125 g/ha alone): 48% | inhibition at 163 g/ha (Bidens pilosa; Bidens pilosa, post-emergence, Compound 74 163 g/ha alone): 15% | inhibition at 250 g/ha (Bidens pilosa; Bidens pilosa, post-emergence, Compound 74 250 g/ha alone): 75% | ED₅₀ (Bidens pilosa; Compound 74 alone): ED₅₀(g/ha)141.27 | ED₉₀ (Solanum nigrum; Compound 74 alone): ED₉₀(g/ha) 41.13 | inhibition at 2 g/ha (Solanum nigrum; Solanum nigrum, post-emergence, Compound 74 2 g/ha alone): 15% | inhibition at 4 g/ha (Solanum nigrum; Solanum nigrum, post-emergence, Compound 74 4 g/ha alone): 30% | inhibition at 8 g/ha (Solanum nigrum; Solanum nigrum, post-emergence, Compound 74 8 g/ha alone): 39% | inhibition at 16 g/ha (Solanum nigrum; Solanum nigrum, post-emergence, Compound 74 16 g/ha alone): 60% | inhibition at 31 g/ha (Solanum nigrum; Solanum nigrum, post-emergence, Compound 74 31 g/ha alone): 82% | inhibition at 63 g/ha (Solanum nigrum; Solanum nigrum, post-emergence, Compound 74 63 g/ha alone): 94% | ED₉₀ (Sesbania exactata; Compound 74 alone): ED₉₀(g/ha)375.45 | inhibition at 8 g/ha (Sesbania exactata; Sesbania, post-emergence, Compound 74 8 g/ha alone): 65% | inhibition at 16 g/ha (Sesbania exactata; Sesbania, post-emergence, Compound 74 16 g/ha alone): 73% | inhibition at 31 g/ha (Sesbania exactata; Sesbania, post-emergence, Compound 74 31 g/ha alone): 61% | inhibition at 125 g/ha (Sesbania exactata; Sesbania, post-emergence, Compound 74 125 g/ha alone): 84% | inhibition at 163 g/ha (Sesbania exactata; Sesbania, post-emergence, Compound 74 163 g/ha alone): 80% | inhibition at 250 g/ha (Sesbania exactata; Sesbania, post-emergence, Compound 74 250 g/ha alone): 79% | ED₅₀ (Eleusine indica [1]; Compound 74 alone): ED₅₀ (g/ha) 72.43 | inhibition at 16 g/ha (Eleusine indica [1]; Eleusine indica, post-emergence, Compound 74 16 g/ha alone): 0% | inhibition at 31 g/ha (Eleusine indica [1]; Eleusine indica, post-emergence, Compound 74 31 g/ha alone): 26% | inhibition at 63 g/ha (Eleusine indica [1]; Eleusine indica, post-emergence, Compound 74 63 g/ha alone): 55% | inhibition at 125 g/ha (Eleusine indica [1]; Eleusine indica, post-emergence, Compound 74 125 g/ha alone): 84% | inhibition at 250 g/ha (Eleusine indica [1]; Eleusine indica, post-emergence, Compound 74 250 g/ha alone): 96% | inhibition at 500 g/ha (Eleusine indica [1]; Eleusine indica, post-emergence, Compound 74 500 g/ha alone): 95% | ED₉₀ (Xanthium strumarium; Compound 74 alone): ED₉₀(g/ha) 166.99 | inhibition at 8 g/ha (Xanthium strumarium; Xanthium strumarium, post-emergence, Compound 74 8 g/ha alone): 55% | inhibition at 16 g/ha (Xanthium strumarium; Xanthium strumarium, post-emergence, Compound 74 16 g/ha alone): 45% | inhibition at 31 g/ha (Xanthium strumarium; Xanthium strumarium, post-emergence, Compound 74 31 g/ha alone): 74% | inhibition at 125 g/ha (Xanthium strumarium; Xanthium strumarium, post-emergence, Compound 74 125 g/ha alone): 86% | inhibition at 163 g/ha (Xanthium strumarium; Xanthium strumarium, post-emergence, Compound 74 163 g/ha alone): 79% | inhibition at 250 g/ha (Xanthium strumarium; Xanthium strumarium, post-emergence, Compound 74 250 g/ha alone): 92% | percentage phytotoxicity (Eleusine indica [2]; Compound 74 16 g/ha alone): 13% | percentage phytotoxicity (Eleusine indica [2]; Compound 74 31 g/ha alone): 12% | percentage phytotoxicity (Eleusine indica [2]; Compound 74 63 g/ha alone): 40% | percentage phytotoxicity (Eleusine indica [2]; Compound 74 125 g/ha alone): 50% | percentage phytotoxicity (Eleusine indica [2]; Compound 74 250 g/ha alone): 77% | ED₅₀ (Eleusine indica [2]; Compound 74 alone, 50% phytotoxicity): 101 g/ha | % crop phytotoxicity Maize (3 leaves) (maize var.Irla; Compound 74 63 g/ha): 1% | % crop phytotoxicity Maize (3 leaves) (maize var.Irla; Compound 74 125 g/ha): 3% | % crop phytotoxicity Maize (3 leaves) (maize var.Irla; Compound 74 250 g/ha): 6% | % crop phytotoxicity Maize (3 leaves) (maize var.Irla; Compound 74 500 g/ha): 10% | % crop phytotoxicity Maize (3 leaves) (maize var.Irla; Compound 74 1000 g/ha): 30% | % crop phytotoxicity Maize (3 leaves) (maize var.Irla; Compound 74 2000 g/ha): 58% | ED₂₀ (maize var.Irla; Compound 74 alone): ED₂₀(g/ha) 601
